Our source for the IC50 values is US9765035B2 (priority 2013, dated 2017).

For the assay, the target named is T1, human PRMT1 (Homo sapiens, UniProt Q99873).
T1 construct: GST-tagged PRMT1; made in house; host or cells: High Five insect cells (baculovirus)
Briefly: biochemical. An excerpt: General Materials. S-adenosylmethionine (SAM), S-adenosylhomocysteine (SAH), bicine, Tween20, dimethylsulfoxide (DMSO), bovine skin gelatin (BSG), and Tris(2-carboxyethyl)phosphine hydrochloride solution (TCEP) were purchased from Sigma-Aldrich at the highest level of purity possible. ^3H-SAM was purchase from American Radiolabeled Chemicals with a specific activity of 80 Ci/mmol. 384-well streptavidin Flashplates were purchased from PerkinElmer.
Substrates. Peptide representative of human histone H4 residues 36-50 was synthesized with an N-terminal linker-affinity tag motif and a C-terminal amide cap by 21st Century Biochemicals. The peptide was purified by high-performance liquid chromatography (HPLC) to greater than 95% purity and confirmed by liquid chromatography mass spectrometry (LC-MS). The sequence was Biot-Ahx-[…]-amide (SEQ ID NO.:1).
Molecular Biology: Full-length human PRMT1 isoform 1 (NM_001536.5) transcript clone was amplified from an HEK 293 cDNA library, incorporating flanking 5′ sequence encoding a FLAG tag ([…]) (SEQ ID NO.:2) fused directly to Met 1 of PRMT1. The amplified gene was subcloned into pFastBacI (Life Technologies) modified to encode an N-terminal GST tag and a TEV cleavage sequence
Protein Expression. Recombinant baculovirus were generated according to Bac-to-Bac kit instructions (Life Technologies). Protein over-expression was accomplished by infecting exponentially growing High Five insect cell culture at 1.5×10^6 cell/ml with 1:100 ratio of virus. Infections were carried out at 27° C. for 48 hours, harvested by centrifugation, and stored at −80° C. for purification.
Protein Purification. […] GST-tagged PRMT1 was eluted with 50 mM Tris, 2 mM glutathione, pH 7.8, dialysed in buffer A and concentrated to 1 mg/mL. The purity of recovered protein was 73%. Reference: Wasilko, D. J. and S. E. Lee: “TIPS: titerless infected-cells preservation and scale-up” Bioprocess J., 5 (2006), pp. 29-32.
General Procedure for PRMT1 Enzyme Assays on Peptide Substrates. The assays were all performed in a buffer consisting of 20 mM Bicine (pH=7.6), 1 mM TCEP, 0.005% BSG, and 0.002% Tween 20, prepared on the day of use. Compounds in 100% DMSO (1 ul) were spotted into a polypropylene 384-well V-bottom plates (Greiner) using a Platemate Plus outfitted with a 384-channel head (Thermo Scientific). DMSO (1 ul) was added to Columns 11, 12, 23, 24, rows A-H for the maximum signal control and 1 ul of SAH, a known product and inhibitor of PRMT1, was added to columns 11, 12, 23, 24, rows I-P for the minimum signal control. A cocktail (40 ul) containing the PRMT1 enzyme was added by Multidrop Combi (Thermo-Fisher). The compounds were allowed to incubate with PRMT1 for 30 min at room temperature, then a cocktail (10 ul) containing SAM and peptide was added to initiate the reaction (final volume=51 ul). The final concentrations of the components were as follows: PRMT1 was 0.5 nM, ^3H-SAM was 200 nM, non-radiolabeled SAM was 1.5 uM, peptide was 20 nM, SAH in the minimum signal control wells was 1 mM, and the DMSO concentration was 2%. The assays were stopped by the addition of non-radiolabeled SAM (10 ul) to a final concentration of 300 uM, which dilutes the ^3H-SAM to a level where its incorporation into the peptide substrate is no longer detectable. 50 ul of the reaction in the 384-well polypropylene plate was then transferred to a 384-well Flashplate and the biotinylated peptides were allowed to bind to the streptavidin surface for at least 1 hour before being washed once with 0.1% Tween20 in a Biotek EL×405 plate washer. The plates were then read in a PerkinElmer TopCount plate reader to measure the quantity of ^3H-labeled peptide bound to the Flashplate surface, measured as disintegrations per minute (dpm) or alternatively, referred to as counts per minute (cpm).
Where dpm=disintegrations per minute, cmpd=signal in assay well, and min and max are the respective minimum and maximum signal controls. […]

The mark [1] stands for this setting: biochemical evaluation, peptide substrate, read-out: PRMT1 IC50.
Where [2] appears, read: single experiment or average of multiple experiments, read-out: PRMT1 biochemical evaluation (numerical).

pIC50: −log10 of the molar value. Like-named read-outs stand apart in the source and are kept apart here.

T1 sequence (Q99873 other isoform, or with tags, fused parts or gaps): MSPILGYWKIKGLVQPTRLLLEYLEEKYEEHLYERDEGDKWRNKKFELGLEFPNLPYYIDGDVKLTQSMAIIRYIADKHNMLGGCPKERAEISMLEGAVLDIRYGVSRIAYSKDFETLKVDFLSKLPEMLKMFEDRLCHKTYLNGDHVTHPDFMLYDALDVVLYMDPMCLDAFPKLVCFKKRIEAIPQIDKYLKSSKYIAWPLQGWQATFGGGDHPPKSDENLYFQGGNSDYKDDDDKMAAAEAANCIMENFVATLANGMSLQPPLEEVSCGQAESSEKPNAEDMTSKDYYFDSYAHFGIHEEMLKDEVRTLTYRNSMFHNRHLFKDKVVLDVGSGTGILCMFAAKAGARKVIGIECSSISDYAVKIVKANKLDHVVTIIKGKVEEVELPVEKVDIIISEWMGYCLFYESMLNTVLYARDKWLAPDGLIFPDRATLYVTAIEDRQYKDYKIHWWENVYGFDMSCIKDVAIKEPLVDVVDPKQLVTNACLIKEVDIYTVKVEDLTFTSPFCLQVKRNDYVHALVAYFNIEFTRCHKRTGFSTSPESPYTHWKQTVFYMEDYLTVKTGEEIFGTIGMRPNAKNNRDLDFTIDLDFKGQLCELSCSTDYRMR

Consider `CNCCN(C)Cc1n[nH]c2ccc(OCc3cccc(C(F)(F)F)c3)cc12` [Compound 72], for which the pIC50 is greater than 7.00 under setting [1] and 6.74 under setting [2].

As to `CNCCN(C)Cc1n[nH]c2ccc(C(C)C)cc12` [Compound 42, N^1-((5-isopropyl-1H-indazol-3-yl)methyl)-N^1,N^2-dimethylethane-1,2-diamine], the pIC50 reads like this: under setting [1], no less than 7.00; under setting [2], 6.11.

As to `CNCCN(C)Cc1n[nH]c2ccc(Oc3ccccc3C)cc12` [Compound 60], the pIC50 was greater than 7.00 under setting [1] and 6.45 under setting [2].

For the compound `CNCCN(C)Cc1n[nH]c2ccc(OC(C)C)cc12` [Compound 64], the pIC50 reads like this: under setting [1], no less than 7.00; under setting [2], 5.58.

On to `CNCCN(C)Cc1n[nH]c2ccc(OCc3cccc(C(C)=O)c3)cc12` [Compound 73], for which the pIC50 runs as follows: under setting [1], greater than 7.00; under setting [2], 6.85.

With `CNCCN(C)Cc1n[nH]c2ccc(Oc3ccc(OC)cc3)cc12` [Compound 59], the pIC50 was greater than 7.00 under setting [1] and 7.00 under setting [2].

`CNCCN(C)Cc1n[nH]c2ccc(Oc3ccc(Cl)cc3)cc12` [Compound 57]: the pIC50 runs as follows: under setting [1], 6.00 to 7.00; under setting [2], 7.36.

`CNCCN(C)Cc1n[nH]c2cccc(OCCC(O)CO)c12` (centres unmarked) [Compound 40]: the pIC50 was 6.00 to 7.00 under setting [1] and 5.41 under setting [2].

For `CCCOc1ccc2[nH]nc(CN(C)CCNC)c2c1` [Compound 65], the pIC50 was no less than 7.00 under setting [1] and 6.89 under setting [2].

`CNCCN(C)Cc1nn(C(C)C)c2ccc(OCc3ccc(C#N)cc3)cc12` [Compound 62]: the pIC50 is, setting by setting: under setting [1], 5.52 to 6.00; under setting [2], 7.25.

As to `CNCCN(C)Cc1n[nH]c2ccc(OCC3CCCC3)cc12` [Compound 52], the pIC50 was 5.52 to 6.00 under setting [1] and 5.43 under setting [2].

With `CNCCN(C)Cc1n[nH]c2ccc(C3=CCCCC3)cc12` [Compound 48], the pIC50 by setting is: under setting [1], no less than 7.00; under setting [2], 7.47.

As to `CNCCN(C)Cc1n[nH]c2ccc(OCc3cccc(C(N)=O)c3)cc12` [Compound 66], the pIC50 under setting [1] is greater than 7.00 and the pIC50 under setting [2] was 7.46.

For the compound `CNCCN(C)Cc1n[nH]c2ccc(OCc3ccc(C(N)=O)cc3)cc12` [Compound 69], the pIC50 under setting [1] is 6.00 to 7.00 and the pIC50 under setting [2] is 7.52.

With `CNCCN(C)Cc1n[nH]c2ccc(Oc3ccccc3OC(C)C)cc12` [Compound 56], the pIC50 by setting is: under setting [1], greater than 7.00; under setting [2], 6.00.

As for `CNCCN(C)Cc1n[nH]c2ccc(OCC3CCCCC3)cc12` [Compound 54], the pIC50 is 6.00 to 7.00 under setting [1] and 5.70 under setting [2].

For the compound `CNCCN(C)Cc1n[nH]c2ccc(Oc3ccccc3C(F)(F)F)cc12` [Compound 49], the pIC50 was 5.00 to 5.52 under setting [1] and 7.80 under setting [2].

For the compound `CNCCN(C)Cc1n[nH]c2ccc(N3CCC4(CCCCC4)CC3)cc12` [Compound 43, N^1-((5-(3-azaspiro[5.5]undecan-3-yl)-1H-indazol-3-yl)methyl)-N^1,N^2-dimethylethane-1,2-diamine], the pIC50 is, setting by setting: under setting [1], greater than 7.00; under setting [2], 6.36.

For the compound `CNCCN(C)Cc1n[nH]c2cccc(OCCCC(O)CO)c12` (centres unmarked) [Compound 41, 5-((3-((methyl(2-(methylamino)ethyl)amino)methyl)-1H-indazol-4-yl)oxy)pentane-1,2-diol], the pIC50 is 6.00 to 7.00 under setting [1] and 7.17 under setting [2].

Turning to `CNCCN(C)Cc1n[nH]c2ccc(Oc3cccc(OC(C)C)c3)cc12` [Compound 67], the pIC50 runs as follows: under setting [1], greater than 7.00; under setting [2], 7.61.

Turning to `CNCCN(C)Cc1n[nH]c2ccc(N3CCCCC3)cc12` [Compound 46, N^1,N^2-dimethyl-N^1-((5-(piperidin-1-yl)-1H-indazol-3-yl)methyl)ethane-1,2-diamine], the pIC50 by setting is: under setting [1], greater than 7.00; under setting [2], 7.67.

Consider `CNCCN(C)Cc1n[nH]c2ccc(OCc3cccc(NC(C)=O)c3)cc12` [Compound 70], for which the pIC50 by setting is: under setting [1], 6.00 to 7.00; under setting [2], 6.73.
